Key:
[1] = human, in vivo
[2] = system: serum levels of cytokine analytes
Protocol: T cell products were generated by transduction of autologous lymphocytes with a g-murine retrovirus carrying an anti-CD19 CAR construct gene, followed by expansion to achieve desired cell dose. Anti-CD19 CAR+ T cell product characteristics were evaluated at time of harvest, or after co-culture with CD19+ cells, by flow cytometry and multiplex cytokine analysis of co-culture supernatants. CAR+ T cell co-culture for product characterization was performed with K562-CD19 cells or K562-NGFR control cells, at an effector to target ratio of 1:1. Standard incubation time was 18 hours.
Cytokine and chemokine levels were measured using EMDmillipore Luminex® xMAP® multiplex assays. Data acquisition and analysis were performed using a Luminex 200™ instrument and xPONENT® 3.1 data analysis software. For IL-7, a human IL-7 Quantikine HS ELISA Kit (HS750) was used with samples run neat per manufacturer's guidelines. The frequency of CAR T cells in circulation was measured by a quantitative PCR analysis. Patients were administered a preconditioning regimen comprising of 300 mg/m^2 cyclophosphamide on days −5 and −4, and 30 mg/m^2 fludarabine on days −5, −4, and −3. Patient sera was collected prior to administration of cyclophosphamide and fludarabine between days −12 and −5 (“pre”), immediately before administration of CAR+ T cells on day 0 (“post”) and on select days following CAR+ T cell administration up to day 18. The serum concentrations of GF-CSF, IL-2, MCP-1, IL-6, IL-10, MCP-4, CRP, IFN gamma, Granzyme A, IL-15, IL-5, Granzyme B, IL-8, IP-10, MIP-1b, PLGF, IL-16, TARC, Eotaxin-3, sICAM-1, sVCAM-1, and SAA were measured pre- and post-conditioning and on select days after administration of CAR+ T cells, as shown in FIG. 6.

[3] = system: serum levels of cytokine analytes; details: in vivo
[4] = 300 mg/m^2 cyclophosphamide, 30 mg/m^2 fludarabine, pre vs day 0

## O=P1(N(CCCl)CCCl)NCCCO1 (centres unmarked) [cyclophosphamide]
[1]
  Incidence of dose limiting toxicity (DLT): 29%

## cyclophosphamide and fludarabine
[2]; [4]
  Serum concentration of CRP following conditioning: significantly increased
  Serum concentration of IL-5 following conditioning: Increases
  Serum concentration of IL-7 following conditioning: significantly increased
  Serum concentration of IL-10 following conditioning: Increases
  Serum concentration of IL-15 following conditioning: significantly increased
  Serum concentration of IP-10 following conditioning: Increases
  Serum concentration of MCP-1 following conditioning: significantly increased
  Serum concentration of PLGF following conditioning: significantly increased
  Serum concentration of s-ICAM1 following conditioning: Increases
  Serum perform after conditioning: decrease
[2]; FIG. 14, markers measured prior to CAR T cell infusion
  Markers showing changes in a majority of patients, associated with p<0.05: 7 out of 41 measured markers
[3]
  CRP increase, average: about 10 fold
  CRP increase, range: essentially no change to an increase of about 25 fold
  CRP level in patient sera after conditioning: increased in some patients and remained stable or decreased in others
  Change in serum CRP: essentially no change
  Change in serum PLGF: only a slight increase
  Change in serum VEGF-D: essentially no change
  Change in serum sICAM-1: essentially no change
  Decrease of serum MIP-1β: about 50%
  IL-15 increase relative to baseline: less than 10 fold
  IL-15 increase relative to baseline, average: about 35 fold
  IL-15 level in patient sera after conditioning: at least some increase
  MCP-1 increase: less than 4 fold
  MCP-1 increase, average: about 5 fold
  MCP-1 level in patient sera after conditioning: at least some increase
  MIP-1 β level in patient sera after conditioning: increased in some patients and remained stable or decreased in others
  MIP-10 levels increase, average: about 1.5 fold
  MIP-10 levels increase, range: essentially no change to an increase of about 3 fold
  PLGF increase, average: about 30 fold
  PLGF increase, range: about 2 fold or less to an increase of about over 100 fold
  PLGF level in patient sera after conditioning: at least some increase
  VEGF-D increase, average: about 3 fold
  VEGF-D increase, range: essentially no change to an increase of about 6 fold
  VEGF-D level in patient sera after conditioning: increased in some patients and remained stable or decreased in others
  sICAM-1 increase, average: about 3 fold
  sICAM-1 increase, range: essentially no change to an increase of about 4.5 fold
  sICAM-1 level in patient sera after conditioning: increased in some patients and remained stable or decreased in others
[3]; ip
  Change in serum IP-10: essentially no change
  IP-10 increase, average: about 3.5 fold
  IP-10 level in patient sera after conditioning: increased in some patients and remained stable or decreased in others

Source: patent US12458654B2, “Methods of conditioning patients for T cell therapy” (Kite Pharma Inc., priority 2015, dated 2025)
